Source: patent publication US9096853B2, “Modified siRNA molecules incorporating 5-fluoro-2′-deoxyuridine residues to enhance cytotoxicity” (U.S. Department of Veterans Affairs, priority 2012, dated 2015)
d = 2'-deoxy (DNA); r = 2'-OH (RNA)

Tests used:
[1] = tested on: human colon cancer RKO cell line; experiment: Cell proliferation assay (WST-1) in RKO cells; assay type: cell-based; conditions: 6 hr exposure then 96 hr growth, mean ± S.D., at least 3 experiments
Description: RKO cells were plated in 96-well plates at a density of 800 cells/well. On the following day, cells were incubated with ssiRNA/LF2000 complexes for 6 hr, after which time, the growth medium was replaced, and cells were grown for an additional 96 hr. Similarly, RKO cells were treated with FdU (#F0503, Sigma) for 6 hr followed by medium replacement and then allowed to grow for an additional 96 hr. Cell proliferation/viability was quantified by the WST-1 assay (Roche; Indianapolis, Ind.).

[2] = tested on: human colon cancer RKO cell line; experiment: Clonogenic assay in RKO cells; assay type: cell-based; conditions: 6 hr exposure, colonies counted after 8 days, mean ± S.D., at least 3 experiments
Description: RKO cells were plated in 6-well plates at a density of 600 cells/well. On the following day, cells were transfected with ssiRNA/LF2000 complexes for 6 hr after which time, the growth medium was replaced. Similarly, FdU was added to wells for 6 hr followed by medium replacement. After 8 days, cell colonies were fixed with Trypan blue solution (75% methanol/25% acetic acid/0.25% trypan blue), washed, and air-dried before counting colonies >50 cells.

[3] = tested on: TS6 siRNA target sequence (TS mRNA nt 1058-1077) targeted by the antisense strand; experiment: Luciferase assay, vector with TS6 target site for the antisense strand; assay type: cell-based, human; conditions: RKO cells, ssiRNA 0.1 nM, 24 hr
Description: (§1) FIG. 3 illustrates the effect of 3′-end modification on ssiRNA strand selection. RKO cells were transfected with luciferase vectors (including the TS6 target site for either the antisense (open bars) or sense strand (hatched bars)) in combination with ssiRNAs containing different 3′-end overhangs. After 24 hr, cells were harvested and luciferase activity was determined as described in the Materials and Methods section. Firefly/renilla luciferase activity from vector-alone transfection was normalized to 100%. All values represent the mean±S.D. from at least 4 separate experiments performed in duplicate;
(§2) FIGS. 4A-C illustrate the effect of 3′-end dU incorporation on ssiRNA strand selection. RKO cells were transfected with various TS6 ssiRNAs (1 nM) for 6 hr. After an additional 48 hr, cells were harvested for immunoblot (A) and qPCR (B) analysis. (C) Luciferase vectors (containing the siRNA target site for either the sense or antisense strand) were transfected into RKO cells in combination with different ssiRNAs. After 24 hr, cells were harvested and luciferase activity was determined as described in the Materials and Methods section. Luciferase activity from vector-alone transfection was normalized to 100%. All values represent the mean±S.D. from at least 4 separate experiments performed in duplicate;
(§3) A DNA oligonucleotide corresponding to the TS6 siRNA target sequence (TS mRNA nt 1058-1077: 5′-[…]-3′- SEQ ID NO: 23) was annealed to its complimentary antisense sequence and ligated into the pGL3-Promoter plasmid (Promega; Madison, WI) at restriction sites Hind III and Nco I. The luciferase mRNA expressed from this plasmid was targeted by the antisense strand of TS6 siRNA. A second plasmid was constructed with the TS mRNA sequence inserted in the opposite orientation so that it could be targeted by the sense or passenger strand of TS6 siRNA. […] After 24 hr, cells were washed with PBS, lysed in 1×PLG buffer, and firefly and renilla luciferase levels were determined by the Dual-Luciferase™ Reporter Assay system (Promega). […]

[4] = tested on: TS mRNA sequence in opposite orientation targeted by the sense (passenger) strand; experiment: Luciferase assay, vector with TS6 target site for the sense strand; assay type: cell-based, human; conditions: RKO cells, ssiRNA 0.1 nM, 24 hr
Description: as §1, §2, §3

Substance: TS6-dU/dA: unmodified TS-targeted ssiRNA, 5 dU on 3′-end of sense strand, 5 dA on 3′-end of antisense strand; SEQ ID NO: 3 and 4 (sense GGAUAUUGUCAGUCUUUAGGUUUUU; antisense CCUAAAGACUGACAAUAUCCAAAAA; sense: sugars from the 5' end r20 d5, backbone and T or U not given here; antisense: sugars from the 5' end r20 d5, backbone not given here)
- IC50 [1]: 81.9 nM
- IC50 [2]: 1.77 nM
- antisense strand targeting, luciferase (in words) [3]: maintained
- sense strand targeting, luciferase (in words) [4]: significantly reduced
